# Source: article PMC11876601 (Molecular Systems Biology, 2025)
# Legend:
# [1] = target: all target kinases identified with the Kinobeads technology; assay: Kinobeads competition pulldown in AsPC-1 lysate, all kinases; assay type: binding, human; details: all targets other than ATR and ACVR2; read-out: KDapp of all other targets
# Protocol: This was followed by incubation with Kinobeads ε (17.5 µl of settled beads) for 30 min at 4 °C to enrich kinases. […] Enriched proteins were reduced with 50 mM DTT in 8 M urea, 40 mM Tris-HCl, pH 7.4 for 30 min at room temperature, and alkylated with 55 mM chloroacetamide. After reducing the urea concentration to 1–2 M, proteins were digested with trypsin at 37 °C for 16 h. Subsequently, eluted peptides were desalted using SepPak tC18 µElution plates (Waters), freeze-dried by vacuum centrifugation, and stored at −20 °C.
# For LC-MS/MS, dried peptides were reconstituted in 0.1% formic acid and analyzed on a Dionex Ultimate3000 nano HPLC (Thermo Scientific) coupled to an Orbitrap Fusion Tribrid mass spectrometer (Thermo Scientific), which was run in data-dependent mode. […]
# Oxidized methionine and N-terminal acetylation were set as variable modification, and cysteine carbamidomethylation was set as fixed modification. Label-free quantification (LFQ) and match-between-runs were enabled. […]
# Proteins were filtered by potential contaminants, reversed hits and proteins identified only by site. Residual binding of proteins was calculated from LFQ intensities as the ratio between drug doses and vehicle. […] Only kinases quantified with at least 4 unique peptides in the vehicle experiment were considered. […]
# RPS6KA1 = system: RPS6KA1; design: method as in Reinecke et al. (2023); details: RPS6KA1, 5 cell line mix lysate, Kinobeads ε, ref Reinecke et al. (2023), cited from earlier work
# LCK = target: LCK; design: method as in Reinecke et al. (2023); details: 5 cell line mix lysate, Kinobeads ε, ref Reinecke et al. (2023), cited from earlier work
# SIK3 = system: SIK3; design: method as in Reinecke et al. (2023); details: SIK3, 5 cell line mix lysate, Kinobeads ε, ref Reinecke et al. (2023), cited from earlier work
# PDO UME061 = assay: PDO viability assay (CellTiter-Glo, 72 h); assay type: cell-based; details: Homo sapiens
# Protocol: Primary patient-derived PDAC organoid (PDO) experiments were performed in the laboratories of Prof. Maximilian Reichert (University Hospital of the TU Munich, Germany, PDO set 1: B250, B535, B678) and Prof. Jens T. Siveke (University Hospital Essen, Germany; PDO set 2: UME008, UME012, UME051, UME053, UME060, UME061). PDOs were generated from surgical resection, EUS-guided fine needle biopsy (EUS-FNB), or ascites (Appendix Table S2). Surgical specimens were first minced with a sterile scalpel and subsequently washed with Anti-Anti solution and washing medium (PDO set 1), or vice versa (PDO set 2; Appendix Table S3). Biopsy samples were directly washed with an Anti-Anti solution and washing medium. Samples were digested using 1 ml of digestion medium at 37 °C while shaking, and the enzymatic reaction was stopped by adding 15 ml of washing medium (Appendix Table S3). […]
# For viability assays in PDOs, confluent organoids were removed from medium, and Matrigel was dissolved by adding 200 μl (PDO set 1) or 2 ml (PDO set 2) of Cell Recovery Solution (Corning), and additionally 500 μl of DPBS (PDO set 1 only). […] After 72 h, cell viability was measured using the CellTiter-Glo Luminescent Cell Viability Assay (Promega) diluted 1:5 in the final volume of the well. […]
# TBK1 = system: TBK1; design: method as in Klaeger et al. (2017); details: lysate 4 cell line mix (Colo205, K-562, MV-4-11, and SK-N-BE(2)), Kinobeads y, ref Klaeger et al. (2017); cited from earlier work
# ERN2 = system: ERN2; design: method as in Klaeger et al. (2017); details: ERN2, 4 cell line mix lysate, Kinobeads y, ref Klaeger et al. (2017); cited from earlier work
smiles,measurement,setting,value
CNCc1ccc(-c2cc(-c3nc(-c4ccc(S(=O)(=O)C(C)C)cc4)cnc3N)on2)cc1 [Berzosertib],Kd,[1],> 10 nM
COc1cc(N2CCC(N3CCN(C)CC3)CC2)ccc1Nc1ncc(Cl)c(Nc2ccccc2P(C)(C)=O)n1 [Brigatinib],EC50,RPS6KA1,376 nM
same,pKDapp,RPS6KA1,6.55
same,Kd,RPS6KA1; read-out: KDapp,283 nM
same,Kd,LCK; read-out: KDapp,963 nM
same,EC50,LCK,2190 nM
same,pKDapp,LCK,6.02
same,EC50,SIK3,1770 nM
same,pKDapp,SIK3,5.84
same,Kd,SIK3; read-out: KDapp,1450 nM
"Nc1ccn([C@@H]2O[C@H](CO)[C@@H](O)C2(F)F)c(=O)n1 [GEM, Gemcitabine]",EC50,PDO UME061; GEM alone,5.8 nM
same,EC50,"PDO UME061; experiment GEM (GEM alone), mean of replicates",5.78 nM
C[C@]12O[C@H](C[C@]1(O)CO)n1c3ccccc3c3c4c(c5c6ccccc6n2c5c31)CNC4=O [Lestaurtinib],EC50,TBK1,[…]
same,EC50,ERN2,373 nM
